Data published in US20250320193A1, “OXOISOINDOLINYL SUBSTITUTED PIPERIDINEDIONE DERIVATIVE AND USE THEREOF” (GLUETACS THERAPEUTICS (SHANGHAI) CO., LTD., priority 2022, published 2025).

Experiments:
[1] = target: IKZF3 (Homo sapiens (Human), UniProt Q96SW2+Q9UKT9); experiment: Western blot, substrate protein expression in hPBMC: IKZF3; format: cell-based; details: for substrate protein remaining % IKZF3: hPBMC, compound 500 nM, 24 hours, Western blot; for concentration at which IKZF3 protein was significantly degraded (Western blot, FIG. 1): hPBMCs
IKZF3, sequence (Q9UKT9 whole entry): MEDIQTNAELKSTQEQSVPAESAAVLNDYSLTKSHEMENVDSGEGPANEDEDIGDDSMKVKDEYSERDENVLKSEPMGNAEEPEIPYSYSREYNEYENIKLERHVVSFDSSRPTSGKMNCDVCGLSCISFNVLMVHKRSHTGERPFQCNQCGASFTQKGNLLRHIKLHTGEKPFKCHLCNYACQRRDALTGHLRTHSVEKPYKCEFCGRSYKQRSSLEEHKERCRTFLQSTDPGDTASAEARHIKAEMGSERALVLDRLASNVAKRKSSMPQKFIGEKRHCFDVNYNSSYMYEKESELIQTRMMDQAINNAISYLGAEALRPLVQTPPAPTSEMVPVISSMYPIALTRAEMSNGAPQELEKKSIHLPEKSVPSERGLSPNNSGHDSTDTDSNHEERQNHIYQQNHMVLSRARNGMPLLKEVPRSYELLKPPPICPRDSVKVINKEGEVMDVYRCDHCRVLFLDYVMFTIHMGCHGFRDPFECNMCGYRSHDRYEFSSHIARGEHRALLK
IKZF3, sequence (Q96SW2 whole entry): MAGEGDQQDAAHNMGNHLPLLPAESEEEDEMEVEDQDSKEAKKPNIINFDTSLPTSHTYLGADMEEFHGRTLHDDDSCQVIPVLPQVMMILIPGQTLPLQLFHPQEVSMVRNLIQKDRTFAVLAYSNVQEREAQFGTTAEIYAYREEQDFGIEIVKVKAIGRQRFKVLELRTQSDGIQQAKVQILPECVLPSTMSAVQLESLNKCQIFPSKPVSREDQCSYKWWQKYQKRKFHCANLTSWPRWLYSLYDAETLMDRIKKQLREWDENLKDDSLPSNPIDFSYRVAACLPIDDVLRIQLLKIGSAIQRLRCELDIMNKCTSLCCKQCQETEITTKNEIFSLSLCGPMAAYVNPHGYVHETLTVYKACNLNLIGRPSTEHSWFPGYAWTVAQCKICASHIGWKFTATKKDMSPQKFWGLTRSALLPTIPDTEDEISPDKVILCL
IKZF3, sequence (Q16531 whole entry partner): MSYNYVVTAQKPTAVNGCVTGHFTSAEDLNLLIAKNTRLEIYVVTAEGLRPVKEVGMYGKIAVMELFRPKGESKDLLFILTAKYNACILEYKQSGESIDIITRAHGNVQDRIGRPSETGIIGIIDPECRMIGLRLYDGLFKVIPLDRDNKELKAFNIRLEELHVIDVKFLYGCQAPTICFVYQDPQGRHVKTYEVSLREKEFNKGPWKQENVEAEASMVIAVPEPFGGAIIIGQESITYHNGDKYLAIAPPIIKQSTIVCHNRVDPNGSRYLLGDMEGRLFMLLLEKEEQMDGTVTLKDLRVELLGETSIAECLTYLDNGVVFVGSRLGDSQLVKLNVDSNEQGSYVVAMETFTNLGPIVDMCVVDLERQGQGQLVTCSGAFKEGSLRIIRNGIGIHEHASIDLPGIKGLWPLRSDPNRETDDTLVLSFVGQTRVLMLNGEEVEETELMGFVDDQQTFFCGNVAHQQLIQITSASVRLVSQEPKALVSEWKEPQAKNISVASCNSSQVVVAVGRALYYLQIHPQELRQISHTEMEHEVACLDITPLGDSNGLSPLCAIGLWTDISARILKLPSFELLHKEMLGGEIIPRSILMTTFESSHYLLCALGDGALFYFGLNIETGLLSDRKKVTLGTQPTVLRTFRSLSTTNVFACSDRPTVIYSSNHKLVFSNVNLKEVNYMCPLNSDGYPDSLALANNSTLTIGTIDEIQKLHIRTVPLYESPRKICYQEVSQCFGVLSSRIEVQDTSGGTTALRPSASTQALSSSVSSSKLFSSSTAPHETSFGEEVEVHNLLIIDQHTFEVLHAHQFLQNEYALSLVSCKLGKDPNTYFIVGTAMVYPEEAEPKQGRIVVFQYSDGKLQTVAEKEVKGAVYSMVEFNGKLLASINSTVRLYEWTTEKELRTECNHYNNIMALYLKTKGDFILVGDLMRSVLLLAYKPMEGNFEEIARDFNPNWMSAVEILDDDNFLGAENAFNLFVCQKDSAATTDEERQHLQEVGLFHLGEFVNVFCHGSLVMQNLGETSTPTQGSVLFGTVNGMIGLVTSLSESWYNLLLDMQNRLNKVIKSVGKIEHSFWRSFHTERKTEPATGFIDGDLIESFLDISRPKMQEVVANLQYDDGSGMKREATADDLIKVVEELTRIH
Method in brief: (§1)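 hPBMC, 1×10^6 cells/mL, 24 h compound exposure; RIPA lysis, BCA protein assay, SDS-PAGE, NC membrane immunoblot. Densitometry vs internal control → % protein remaining; degradation % = 100% − remaining; DC50 = conc. at 50% of DMSO band signal.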

[2] = target: IKZF1 (Homo sapiens (Human), UniProt Q13422+Q96SW2); experiment: Western blot, substrate protein expression in hPBMC: IKZF1; format: cell-based; details: for substrate protein remaining % IKZF1: hPBMC, compound 500 nM, 24 hours, Western blot; for concentration at which IKZF1 protein was significantly degraded (Western blot, FIG. 1): hPBMCs
IKZF1, sequence (Q13422 whole entry): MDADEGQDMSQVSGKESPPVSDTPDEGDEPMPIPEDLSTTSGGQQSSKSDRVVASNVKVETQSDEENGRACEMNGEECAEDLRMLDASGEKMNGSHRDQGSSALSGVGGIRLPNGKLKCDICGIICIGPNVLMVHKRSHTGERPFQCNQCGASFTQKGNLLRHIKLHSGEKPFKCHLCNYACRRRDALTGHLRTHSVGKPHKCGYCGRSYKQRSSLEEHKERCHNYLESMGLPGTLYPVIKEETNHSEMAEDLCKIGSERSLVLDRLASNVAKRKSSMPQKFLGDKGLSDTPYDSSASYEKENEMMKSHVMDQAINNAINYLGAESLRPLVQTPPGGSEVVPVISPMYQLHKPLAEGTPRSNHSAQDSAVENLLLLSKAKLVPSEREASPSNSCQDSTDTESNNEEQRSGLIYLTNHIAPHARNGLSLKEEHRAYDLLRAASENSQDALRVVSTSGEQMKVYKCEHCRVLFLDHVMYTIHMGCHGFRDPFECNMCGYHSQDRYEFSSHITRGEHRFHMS
IKZF1, sequence (Q96SW2 whole entry): as the sequence (Q96SW2 whole entry) above
IKZF1, sequence (Q16531 whole entry partner): as the sequence (Q16531 whole entry partner) above
Method in brief: as §1

[3] = target: GSPT1 (Homo sapiens (Human), UniProt P15170+Q96SW2); experiment: Western blot, substrate protein expression in hPBMC: GSPT1; format: cell-based; details: for substrate protein remaining % GSPT1: hPBMC, compound 500 nM, 24 hours, Western blot; for concentration at which GSPT1 protein was clearly/significantly degraded (Western blot, FIG. 1): hPBMCs
GSPT1, sequence (P15170 whole entry): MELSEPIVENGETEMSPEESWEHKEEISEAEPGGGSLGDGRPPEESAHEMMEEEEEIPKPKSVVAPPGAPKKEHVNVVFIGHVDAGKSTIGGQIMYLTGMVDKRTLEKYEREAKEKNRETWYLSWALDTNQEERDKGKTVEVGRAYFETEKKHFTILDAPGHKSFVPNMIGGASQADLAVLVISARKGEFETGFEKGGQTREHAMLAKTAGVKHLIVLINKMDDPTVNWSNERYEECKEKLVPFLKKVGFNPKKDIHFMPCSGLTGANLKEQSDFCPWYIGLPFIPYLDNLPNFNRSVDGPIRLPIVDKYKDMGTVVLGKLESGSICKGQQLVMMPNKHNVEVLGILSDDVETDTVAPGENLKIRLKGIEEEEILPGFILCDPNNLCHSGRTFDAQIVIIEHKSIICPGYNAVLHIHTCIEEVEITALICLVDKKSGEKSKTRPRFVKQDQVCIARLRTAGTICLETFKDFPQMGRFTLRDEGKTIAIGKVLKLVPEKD
GSPT1, sequence (Q96SW2 whole entry): as the sequence (Q96SW2 whole entry) above
GSPT1, sequence (Q16531 whole entry partner): as the sequence (Q16531 whole entry partner) above
Method in brief: as §1

[4] = tested on: MDA-MB-231 cells (human breast adenocarcinoma cells); experiment: Tumor cell proliferation inhibition, CCK-8; format: cell-based; details: MDA-MB-231 cells, CCK-8, read-out: inhibitory activity (IC50, nM) MDA-MB-231
Protocol: (§2) The tumor cells used herein were cultured in a cell culture medium listed in table 2 at 37° C. in an incubator with 5% CO2. Prior to experimentation, all cells used were correctly identified by STR profiling, and tested negative for mycoplasma through routine screenings.
(§3) IC50 values of the compounds of the present disclosure (including the compounds in Table 1 and the Examples 1-305 compounds) were measured using the Meilun Cell Counting Kit-8 kit from Dalian Meilun Biotech Co., Ltd. Assay details are as follows: tumor cells were seeded in a 96-well plate at a density listed in Table 5. After 24 h, 100 μL of the inoculated cells were treated with 0.5 μL of the compounds of the present disclosure (including the compounds in Table 1 and the Examples 1-305 compounds) at 10 different successively decreasing concentrations (starting at the highest concentration of 10 μM; 5-fold serial dilutions). After the cells were treated with the compounds of the present disclosure for a period of time, the cell viability detection reagent was added to the culture medium for cell viability assessment according to the instructions provided with the CCK-8 kit. […] The growth inhibition of the compounds of the present disclosure on cells was plotted by Prism Graphpad software, and the IC50 values of the compounds of the present disclosure were calculated therefrom.

[5] = tested on: MM.1S cells (human multiple myeloma cells); experiment: Tumor cell proliferation inhibition, CCK-8; format: cell-based; details: MM1.S, MM.1S cells, CCK-8, read-out: inhibitory activity (IC50, nM) MM.1S
Protocol: as §2, §3

[6] = tested on: TMD8 cells (human diffuse large B-cell lymphoma cells); experiment: Tumor cell proliferation inhibition, CCK-8; format: cell-based; details: TMD8 cells, CCK-8, read-out: inhibitory activity (IC50, nM) TMD8
Protocol: as §2, §3

[7] = tested on: H146 cells (human small cell lung carcinoma cells); experiment: Tumor cell proliferation inhibition, CCK-8; format: cell-based; details: NCI-H146, H146 cells, CCK-8, read-out: inhibitory activity (IC50, nM) H146
Protocol: as §2, §3

[8] = target: human Cereblon WT GST-tagged protein (Homo sapiens (Human), UniProt Q96SW2); experiment: CRBN-binding affinity, HTRF (CEREBLON BINDING kit, CISBIO); details: HTRF inhibitory activity
human Cereblon WT GST-tagged protein, sequence (Q96SW2 whole entry): as the sequence (Q96SW2 whole entry) above
Method in brief: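 Compounds were mixed with GST-tagged human Cereblon WT protein, then with Thalidomide-Red tracer and GST Eu antibody, and binding was read by HTRF. Inhibition rate was calculated from 620 nm emission relative to blank control wells (no protein) and solvent control wells.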

IC50 [4]	IC50 [5]	IC50 [6]	IC50 [7]	IC50 [8]	Structure (SMILES)	substrate protein remaining % IKZF3 [1]	concentration at which IKZF3 protein was significantly degraded (Western blot, FIG. 1) [1]	substrate protein remaining % IKZF1 [2]	concentration at which IKZF1 protein was significantly degraded (Western blot, FIG. 1) [2]	substrate protein remaining % GSPT1 [3]	concentration at which GSPT1 protein was clearly/significantly degraded (Western blot, FIG. 1) [3]
50 to 100 nM	1 to 10 nM	500 to 1000 nM	10 to 50 nM	< 0.5 µM	O=C1CCC(N2Cc3cc(CN4C[C@@H]5C[C@H]4CN5C(c4ccccc4)c4ccccc4)c(F)cc3C2=O)C(=O)N1 (stereo partly drawn) [GT-05894, 3-(5-(((1S,4S)-5-benzhydryl-2,5-diazabicyclo[2.2.1]heptan-2-yl)methyl)-6-fluoro-1-oxoisoindolin-2-yl)piperidine-2,6-dione]	B (B represents substrate protein remaining % > 50%)		A (A represents 0% ≤ substrate protein remaining % ≤ 50%)		A (A represents 0% ≤ substrate protein remaining % ≤ 50%)	
10 to 50 nM	1 to 10 nM	10 to 50 nM	10 to 50 nM	< 0.5 µM	O=C1CCC(N2Cc3cc(CN4CCN(C5c6ccccc6-c6ccccc65)CC4)ccc3C2=O)C(=O)N1 (centres unmarked) [GT-05907, 3-(5-((4-(9H-fluoren-9-yl)piperazin-1-yl)methyl)-1-oxoisoindolin-2-yl)piperidine-2,6-dione]	A (A represents 0% ≤ substrate protein remaining % ≤ 50%)		A (A represents 0% ≤ substrate protein remaining % ≤ 50%)		A (A represents 0% ≤ substrate protein remaining % ≤ 50%)	
10 to 50 nM	1 to 10 nM	10 to 50 nM	10 to 50 nM	< 0.5 µM	O=C1CCC(N2Cc3cc(CN4CCN(C(c5ccccc5F)c5ccccc5F)CC4)ccc3C2=O)C(=O)N1 (centres unmarked) [GT-06084, 3-(5-((4-(bis(2-fluorophenyl)methyl)piperazin-1-yl)methyl)-1-oxoisoindolin-2-yl)piperidine-2,6-dione]	A (A represents 0% ≤ substrate protein remaining % ≤ 50%)		A (A represents 0% ≤ substrate protein remaining % ≤ 50%)		A (A represents 0% ≤ substrate protein remaining % ≤ 50%)	
10 to 50 nM	1 to 10 nM	10 to 50 nM	10 to 50 nM	0.5 to 1 µM	O=C1CCC(N2Cc3c(ccc(CN4CCN(C(c5ccccc5F)c5ccccc5F)CC4)c3F)C2=O)C(=O)N1 (centres unmarked) [GT-06085, 3-(5-((4-(bis(2-fluorophenyl)methyl)piperazin-1-yl)methyl)-4-fluoro-1-oxoisoindolin-2-yl)piperidine-2,6-dione]	A (A represents 0% ≤ substrate protein remaining % ≤ 50%)		A (A represents 0% ≤ substrate protein remaining % ≤ 50%)		A (A represents 0% ≤ substrate protein remaining % ≤ 50%)	
10 to 50 nM	1 to 10 nM	10 to 50 nM	10 to 50 nM	0.5 to 1 µM	O=C1CCC(N2Cc3cc(CN4CCN(C(c5ccccc5F)c5ccccc5F)CC4)c(F)cc3C2=O)C(=O)N1 (centres unmarked) [GT-06086, 3-(5-((4-(bis(2-fluorophenyl)methyl)piperazin-1-yl)methyl)-6-fluoro-1-oxoisoindolin-2-yl)piperidine-2,6-dione]	A (A represents 0% ≤ substrate protein remaining % ≤ 50%)		A (A represents 0% ≤ substrate protein remaining % ≤ 50%)		A (A represents 0% ≤ substrate protein remaining % ≤ 50%)	
100 to 500 nM	10 to 50 nM	100 to 500 nM	50 to 100 nM	< 0.5 µM	O=C1CCC(N2Cc3cc(CN4CCN(C(c5ccccc5F)c5ccccc5F)CC4)cc(F)c3C2=O)C(=O)N1 (centres unmarked) [GT-06087, 3-(5-((4-(bis(2-fluorophenyl)methyl)piperazin-1-yl)methyl)-7-fluoro-1-oxoisoindolin-2-yl)piperidine-2,6-dione]	B (B represents substrate protein remaining % > 50%)		B (B represents substrate protein remaining % > 50%)		A (A represents 0% ≤ substrate protein remaining % ≤ 50%)	
100 to 500 nM	10 to 50 nM	500 to 1000 nM	100 to 500 nM	< 0.5 µM	O=C1CCC(N2Cc3cc(C(=O)N4CCN(C(c5cccc(F)c5)c5cccc(F)c5)CC4)ccc3C2=O)C(=O)N1 (centres unmarked) [GT-06146, 3-(5-(4-(bis(3-fluorophenyl)methyl)piperazine-1-carbonyl)-1-oxoisoindolin-2-yl)piperidine-2,6-dione]	A (A represents 0% ≤ substrate protein remaining % ≤ 50%)		A (A represents 0% ≤ substrate protein remaining % ≤ 50%)		A (A represents 0% ≤ substrate protein remaining % ≤ 50%)	

Structure (SMILES)	IC50 [4]	IC50 [5]	IC50 [6]	IC50 [7]	IC50 [8]	substrate protein remaining % IKZF3 [1]	concentration at which IKZF3 protein was significantly degraded (Western blot, FIG. 1) [1]	substrate protein remaining % IKZF1 [2]	concentration at which IKZF1 protein was significantly degraded (Western blot, FIG. 1) [2]	substrate protein remaining % GSPT1 [3]	concentration at which GSPT1 protein was clearly/significantly degraded (Western blot, FIG. 1) [3]
O=C1CCC(N2Cc3c(ccc(CN4CCC(N(c5ccccc5)c5ccccn5)CC4)c3F)C2=O)C(=O)N1 (centres unmarked) [GT-05856, 3-(4-fluoro-1-oxo-5-((4-(phenyl(pyridin-2-yl)amino)piperidin-1-yl)methyl)isoindolin-2-yl)piperidine-2,6-dione]	1 to 10 nM	< 1 nM	1 to 10 nM	1 to 10 nM	< 0.5 µM	A (A represents 0% ≤ substrate protein remaining % ≤ 50%)	below 50 nM	A (A represents 0% ≤ substrate protein remaining % ≤ 50%)	below 50 nM	A (A represents 0% ≤ substrate protein remaining % ≤ 50%)	below 50 nM
O=C1CCC(N2Cc3cc(CN4CCC(N(c5ccccc5)c5ccccn5)CC4)c(F)cc3C2=O)C(=O)N1 (centres unmarked) [GT-05857, 3-(6-fluoro-1-oxo-5-((4-(phenyl(pyridin-2-yl)amino)piperidin-1-yl)methyl)isoindolin-2-yl)piperidine-2,6-dione]	1 to 10 nM	< 1 nM	1 to 10 nM	1 to 10 nM	< 0.5 µM	A (A represents 0% ≤ substrate protein remaining % ≤ 50%)	below 50 nM	A (A represents 0% ≤ substrate protein remaining % ≤ 50%)	below 50 nM	A (A represents 0% ≤ substrate protein remaining % ≤ 50%)	below 50 nM
O=C1CCC(N2Cc3cc(N4C5CCC4CN(C(c4ccccc4)c4ccccc4)C5)ccc3C2=O)C(=O)N1 (centres unmarked) [GT-05866, 3-(5-(3-benzhydryl-3,8-diazabicyclo[3.2.1]octan-8-yl)-1-oxoisoindolin-2-yl)piperidine-2,6-dione]	10 to 50 nM	1 to 10 nM	50 to 100 nM	10 to 50 nM	0.5 to 1 µM	A (A represents 0% ≤ substrate protein remaining % ≤ 50%)		B (B represents substrate protein remaining % > 50%)		A (A represents 0% ≤ substrate protein remaining % ≤ 50%)	
